The values below come from patent US12636385B2, “Selective ligands for tau aggregates” (Sentonix, Inc., priority 2018, dated 2026).

A word on the pIC50: it is the negative decadic logarithm of the IC50, by convention in mol/L.

Experiment [1] concerns the target T1, Aβ(1-42) amyloid fibrils (Homo sapiens, UniProt P05067).
T1 construct: Aβ(1-42) amyloid fibrils
Description: ^3H-AZD2184 competition binding to Aβ(1-42) fibrils in vitro. The following applies: [^3H]-AZD2184, Aβ(1-42) amyloid fibrils; average if run more than once. Here is the method:
Competition binding experiments to Aβ(1-42) amyloid fibrils were performed as previously described in Jureus, A., et al, Journal of Neurochemistry (2010), Vol. 114, pages 784-794 for the Example compounds of the invention indicated in Table 2, or the known tau specific ligand PBB3 (PBB3 was synthesized as previously described in M. Maruyama, et al, Neuron 2013, 79, 1094-1108).
The results are shown in Table 2 in the column labeled “Aβ IC50”.

Experiment [2] addresses T2, 0N4R Tau fibrils (Homo sapiens, UniProt P10636).
T2 construct: made in house
Description: ^3H-THK5117 competition binding to tau fibrils in vitro. Conditions: for pIC50: 3 nM [^3H]-THK5117, recombinant 0N4R tau fibrils, average if run more than once; for Selectivity for tau relative to Aβ: calculated from [^3H]-THK5117 tau and [^3H]-AZD2184 Aβ assays. Here is the method: Preparation of recombinant 0N4R Tau fibrils was performed as previously described in Morozova, O. A., Biochemistry (2013), Vol., 52(40), pages 6960-6967. Competition binding experiments to 0N4R Tau fibrils were performed by incubating increasing concentrations [10^−10-10^−6 M] of the Example compounds of the invention, or the known tau specific ligand PBB3 (PBB3 was synthesized as previously described in M. Maruyama, et al, Neuron 2013, 79, 1094-1108) or MK6240 (Novandi Chemistry AB), in the presence of 3 nM of the known tau ligand [^3H]-THK5117 (Novandi Chemistry) and 0.2 mM 0N4R tau fibrils in binding buffer (50 mM Tris-HCl, pH 7.4, 0.1% BSA) for 1 h in the dark, and at 22° C. The incubation was terminated by filtration through a Whatman GF/B glass filter (Whatman International, Kent, UK) using a Brandel cell harvester. The filter was then washed rapidly four times with 3 mL of ice-cold wash buffer (5 mM Tris-HCl, 0.25 mM NaCl, 5% EtOH), and equilibrated for 1 h in scintillation vials containing 5 mL of Ultima Gold scintillation fluid before being analysed using a Liquid Scintillation Analyzer.
The results are shown in Table 2 in the column labeled “Tau IC50”.
Relative selectivity for tau compared to Aβ for the exemplified compounds was calculated using the results for the [^3H]-THK5117 tau and [^3H]-AZD2184 Aβ assays described above. The calculated results are shown in Table 2 in the column labeled “Selectivity for tau relative to Aβ”.

pIC50: −log10 of the molar value.

T2 sequence (P10636 1-383 isoform P10636-6): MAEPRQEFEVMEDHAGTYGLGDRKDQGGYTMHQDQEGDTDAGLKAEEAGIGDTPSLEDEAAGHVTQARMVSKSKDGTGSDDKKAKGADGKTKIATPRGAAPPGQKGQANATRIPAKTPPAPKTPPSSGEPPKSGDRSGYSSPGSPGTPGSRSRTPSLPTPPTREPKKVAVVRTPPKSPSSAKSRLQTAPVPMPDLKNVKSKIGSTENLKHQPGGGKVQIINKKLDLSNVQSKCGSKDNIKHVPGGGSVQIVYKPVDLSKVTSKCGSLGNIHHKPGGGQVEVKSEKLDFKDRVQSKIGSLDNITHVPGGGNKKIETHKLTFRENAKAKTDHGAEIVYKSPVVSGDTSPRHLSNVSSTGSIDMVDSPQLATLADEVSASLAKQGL
T1 sequence (P05067 672-713): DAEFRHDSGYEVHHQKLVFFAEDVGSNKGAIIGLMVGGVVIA

Regarding `OCCC1CCN(c2ccc(-c3cc4ccccc4o3)c(F)n2)CC1` [Compound 46], in experiment [1], the pIC50 was 7.28. Also, in experiment [2], the negative-log IC50 (pIC50) was 8.22 and the “Selectivity for tau relative to Aβ” value is on record as 8.8.

As for `OCC1CCN(c2ccc(-c3cc4cccnc4[nH]3)c(F)n2)CC1` [Compound 73, [1-(6-Fluoro-5-{1H-pyrrolo[2,3-b]pyridin-2-yl}pyridin-2-yl)piperidin-4-yl]methanol], the pIC50 in experiment [2] was 7.39.

In experiment [1], `OCC1CCN(c2ccc(-c3cc4ccccc4o3)c(F)n2)CC1` [Compound 45] showed a pIC50 of 7.38. Moreover, in experiment [2], the negative logarithm of the IC50 (pIC50) is 8.05 and the “Selectivity for tau relative to Aβ” value is listed as 4.7.

In the case of `COc1ccc2[nH]c(-c3ccc(N4CCC(C(N)=O)CC4)nc3)cc2c1` [Compound 71, 1-[5-(5-Methoxy-1H-indol-2-yl)pyridin-2-yl]piperidine-4-carboxamide], the pIC50 in experiment [1] is 6.94. Moreover, in experiment [2], the pIC50 was 7.80 and the “Selectivity for tau relative to Aβ” value is on record as 7.1.

In the case of `OCC1CCN(c2ccc(-c3cc4cc(O)ccc4[nH]3)c(F)n2)CC1` [Compound 48], the pIC50 was 6.73 in experiment [1] and 8.30 in experiment [2]. In addition, the “Selectivity for tau relative to Aβ” value in experiment [2] was 37.

With `OCC1CCN(c2ccc(-c3cc4cc(O)cnc4[nH]3)c(F)n2)CC1` [Compound 75], in experiment [2], the pIC50 was 7.85.

For the compound `COc1ccc2nc(-c3ccc(N4CCC(CCF)CC4)nc3)sc2c1` [Compound 24], in experiment [1], the negative logarithm of the IC50 (pIC50) was 9.00. In experiment [2], the pIC50 is 8.70 and the “Selectivity for tau relative to Aβ” value is 0.5.

Take `NC(=O)c1ccc2cc(-c3cnc(N4CCC(CF)CC4)nc3)[nH]c2c1` [Compound 70, 2-{2-[4-(Fluoromethyl)piperidin-1-yl]pyrimidin-5-yl}-1H-indole-6-carboxamide]: the pIC50 in experiment [2] is 7.70.

With `CS(=O)(=O)OCCC1CCN(c2ccc(-c3nc4cnccc4o3)cn2)CC1` [Compound 19], the pIC50 in experiment [2] is 7.12.

`OCC1CCN(c2ccc(-c3nc4ccc(OCCF)cc4s3)cn2)CC1` [Compound 56]: the negative logarithm of the IC50 (pIC50) in experiment [1] is 8.52. Also, in experiment [2], the pIC50 was 8.70 and the “Selectivity for tau relative to Aβ” value is 1.5.

`CNC(=O)c1ccc2cc(-c3ccc(N4CCC(CO)CC4)nc3F)[nH]c2c1` [Compound 64, 2-{2-Fluoro-6-[4-(hydroxymethyl)piperidin-1-yl]pyridin-3-yl}-N-methyl-1H-indole-6-carboxamide]: the pIC50 in experiment [2] is 7.62.

For the compound `OCCC1CCN(c2ccc(-c3nc4cnccc4o3)cn2)CC1` [Compound 18], the negative logarithm of the IC50 (pIC50) in experiment [2] was 7.41.

In the case of `COC1CCN(c2ccc(-c3nc4ccccc4o3)cn2)CC1` [Compound 15], the pIC50 in experiment [2] is 7.41.

Turning to `COc1cnc2[nH]c(-c3ccc(N4CCC(CO)CC4)nc3F)cc2c1` [Compound 74], the pIC50 in experiment [2] is 7.85.

As to `COc1ccc2nc(-c3ccc(N4CCC(CCOCCOCCOCCF)CC4)nc3)sc2c1` [Compound 22], the pIC50 in experiment [1] and in experiment [2] was 8.40 each time. The “Selectivity for tau relative to Aβ” value in experiment [2] was 1.

On to `CS(=O)(=O)OCCC1CCN(c2ncc(-c3nc4ccc(C(N)=O)cc4s3)cn2)CC1` [Compound 42], for which the pIC50 in experiment [2] was 7.82.

As for `COc1ccc2nc(-c3cnc(N4CCC(CCOCCOCCOCCF)CC4)nc3)sc2c1` [Compound 26], the pIC50 in experiment [1] was 8.10. For the same compound, in experiment [2], the pIC50 was 8.30 and the “Selectivity for tau relative to Aβ” value is 1.6.

In experiment [1], `OCC1CCN(c2ncc(-c3cc4cc(OCCF)ccc4[nH]3)cn2)CC1` [Compound 72, (1-{5-[5-(2-Fluoroethoxy)-1H-indol-2-yl]pyrimidin-2-yl}piperidin-4-yl)methanol] gave a pIC50 of 7.38. In experiment [2], the negative-log IC50 (pIC50) is 8.15 and the “Selectivity for tau relative to Aβ” value is 6.

The compound `FCCOCCOCCOC1CCN(c2ccc(-c3nc4ccccc4s3)cn2)CC1` [Compound 6] gave a pIC50 in experiment [1] of 8.52. Moreover, in experiment [2], the pIC50 was 7.80 and the “Selectivity for tau relative to Aβ” value is 0.2.

In the case of `OC1CCN(c2ncc(-c3cc4ccccc4o3)cn2)CC1` [Compound 32], the negative logarithm of the IC50 (pIC50) in experiment [1] was 7.18; in experiment [2], 7.37. Further, the “Selectivity for tau relative to Aβ” value in experiment [2] is given as 1.5.

Take `CCOC(=O)C1CCN(c2ccc(-c3cc4cc(O)ccc4[nH]3)c(F)n2)CC1` [Compound 65]: the pIC50 in experiment [1] is 7.36. Also, in experiment [2], the pIC50 was 8.70 and the “Selectivity for tau relative to Aβ” value is 22.

Regarding `CCOC(=O)C1CCN(c2ccc(-c3cc4ccc(OC)cc4[nH]3)c(F)n2)CC1` [Compound 63, Ethyl 1-[6-Fluoro-5-(6-methoxy-1H-indol-2-yl)pyridin-2-yl]piperidine-4-carboxylate], the negative-log IC50 (pIC50) in experiment [2] was 8.64.

For the compound `Oc1ccc2nc(-c3cnc(N4CCC(CCF)CC4)nc3)sc2c1` [Compound 39], in experiment [1], the pIC50 was 7.30. Moreover, in experiment [2], the pIC50 was 8.82 and the “Selectivity for tau relative to Aβ” value is given as 33.

For `O=C(NCCO)c1ccc2nc(-c3cnc(N4CCC(CCF)CC4)nc3)sc2c1` [Compound 60], the pIC50 in experiment [1] is 7.55; in experiment [2], 7.96. Further, in experiment [2], the “Selectivity for tau relative to Aβ” value was 2.5.

Consider `OCC1CCN(c2ccc(-c3cc4cc(OCCF)ccc4[nH]3)cn2)CC1` [Compound 77], for which the pIC50 in experiment [2] is 7.85.

For `OCCC1CCN(c2ccc(-c3nc4ccccc4o3)cn2)CC1` [Compound 11], in experiment [2], the pIC50 was 7.19.

Regarding `FCCC1CCN(c2ccc(-c3nc4cnccc4o3)cn2)CC1` [Compound 20], the pIC50 in experiment [2] is 7.22.

Consider `NC(=O)COC1CCN(c2ncc(-c3cc4ccccc4o3)cn2)CC1` [Compound 34], for which, in experiment [2], the pIC50 was 7.49.

For `N#CC1CCN(c2ccc(-c3nc4ccccc4o3)cn2)CC1` [Compound 17], in experiment [2], the negative-log IC50 (pIC50) was 7.14.

Take `c1ccc2oc(-c3ccc(N4CCCCC4)nc3)nc2c1` [Compound 14]: in experiment [2], the pIC50 is 7.66.

On to `FCC1CCN(c2ccc(-c3nc4ccccc4s3)cn2)CC1` [Compound 2], for which the pIC50 in experiment [2] is 8.15.

On to `CC1CCN(c2ccc(-c3nc4ccccc4o3)cn2)CC1` [Compound 16], for which, in experiment [2], the pIC50 is 7.23.

In the case of `O=C(NCCF)c1ccc2nc(-c3cnc(N4CCC(CCO)CC4)nc3)sc2c1` [Compound 61], in experiment [2], the pIC50 is 7.72.

Turning to `CCOC(=O)c1ccc2nc(-c3cnc(N4CCC(CCO)CC4)nc3)sc2c1` [Compound 59], the pIC50 in experiment [2] is 8.30.

Regarding `CS(=O)(=O)OCCC1CCN(c2ccc(-c3nc4ccccc4o3)cn2)CC1` [Compound 12], the pIC50 in experiment [2] was 7.77.

Regarding `Cc1ccc(S(=O)(=O)OCCC2CCN(c3ccc(-c4nc5ccccc5s4)cn3)CC2)cc1` [Compound 8], the pIC50 in experiment [2] was 8.10.

Consider `FCCC1CCN(c2ccc(-c3nc4ccccc4o3)cn2)CC1` [Compound 13], for which the pIC50 in experiment [2] was 7.89.

With `OCCC1CCN(c2ccc(-c3cc4ccccc4o3)nn2)CC1` [Compound 35], the pIC50 in experiment [2] was 7.00.

As to `FCCC1CCN(c2ccc(-c3nc4ccccc4s3)cn2)CC1` [Compound 9], the pIC50 in experiment [2] was 8.22.

As for `OCCOC1CCN(c2ncc(-c3cc4ccccc4o3)cn2)CC1` [Compound 31], in experiment [2], the pIC50 was 7.82.

For `CCOC(=O)c1ccc2nc(-c3cnc(N4CCC(CCF)CC4)nc3)sc2c1` [Compound 44], in experiment [2], the pIC50 was 8.40.

Regarding `COS(=O)(=O)CCC1CCN(c2ncc(-c3cc4ccccc4o3)cn2)CC1` [Compound 29], the pIC50 in experiment [2] is 7.49.

For the compound `OCCC1CCN(c2ccc(-c3cc4ccccc4s3)cn2)CC1` [Compound 50, 2-{1-[5-(1-Benzothiophen-2-yl)pyridin-2-yl]piperidin-4-yl}ethan-1-ol], the pIC50 in experiment [2] was 8.40.

For `OCCC1CCN(c2ncc(-c3nc4ccccc4[nH]3)cn2)CC1` [Compound 49, 2-{1-[5-(1H-1,3-Benzodiazol-2-yl)pyrimidin-2-yl]piperidin-4-yl}ethan-1-ol], the pIC50 in experiment [2] is 7.31.

`OCC1CCN(c2ccc(-c3nc4ccccc4s3)cn2)CC1` [Compound 1]: the negative-log IC50 (pIC50) in experiment [2] is 7.72.

Consider `OCCC1CCN(c2ccc(-c3nc4ccc(OCC(O)CF)cc4s3)cn2)CC1` (stereo not shown) [Compound 37], for which the pIC50 in experiment [2] is 7.85.

Turning to `NC(=O)c1ccc2nc(-c3cnc(N4CCC(CCO)CC4)nc3)sc2c1` [Compound 41], the pIC50 in experiment [2] was 8.00.

As for `NC(=O)COC1CCN(c2ccc(-c3nc4ccccc4s3)cn2)CC1` [Compound 10], the pIC50 in experiment [2] is 7.51.

On to `OCC1CCN(c2ccc(-c3nc4ccc(O)cc4s3)cn2)CC1` [Compound 55], for which the pIC50 in experiment [2] is 8.15.

As for `COc1ccc2[nH]c(-c3ccc(N4CCC(CCO)CC4)nc3)cc2c1` [Compound 51, 2-{1-[5-(5-Methoxy-1H-indol-2-yl)pyridin-2-yl]piperidin-4-yl}ethan-1-ol], the pIC50 in experiment [2] was 7.89.

In the case of `OC1CCN(c2ccc(-c3nc4ccccc4s3)cn2)CC1` [Compound 4], the pIC50 in experiment [2] is 7.37.
